The text below walks through data of patent publication US6806377B1, “Preparation of metallocenes carrying a cyclopentadiene comprising a basic donor group” (The University of Leeds, priority 1999, dated 2004).

A short description of data set [1]: stability towards water, air, moisture and heat (qualitative statements). It is filed as physicochemical. Particulars: for air / moisture stability: air and moisture.
Data set [2] can be described thus: solubility in solvents (qualitative statements). In kind it is physicochemical.
For data set [3] the following is noted: background statement; cited from earlier work.

For the substance (Cp(CH2)2N(CH2)5)2TiMe2 [Compound 3], in data set [1], the thermal stability result is “thermally stable” and the “air / moisture stability” value is “highly air sensitive”.
On to “(CpCH2CH2N(CH2)2(CH2)2)2TiCl2.2HCl [Compound 2]”, for which the “solubility in a polar solvent” value in data set [2] (polar solvent such as methanol, water and acetonitrile) is “soluble”. In data set [2] (water), the water solubility result is on record as “water soluble”. For the same substance, in data set [1], the “air / moisture stability” value is listed as “air stable”. Also, the storage stability entry in data set [1] (storage of the protected titanocene) is recorded as “can be stored indefinitely”.
For the substance (CpCH2CH2N(CH2)2)2)TiCl2 [Compound 1], in data set [2] (solvents such as ether and toluene), the “solubility in aprotic, polar and non-polar solvents” value is “soluble”. Further, in data set [1], the “air / moisture stability” value is “highly air and moisture sensitive”.
For titanocene dichloride, the “stability in aqueous solution” value in data set [3] is “unstable”.
